Laboratory results published in PubChem BioAssay AID248 (DTP/NCI, 2004).
Where “and” joins values, the source holds several entries; their conditions need not be identical. Equal values may be shown once. Inconclusive results and toxic doses are left out. Rule as the data show it: active = T/C of 150% or more; inactive = T/C below 125%.

Tested on: L1210 leukemia ip in BDF1 mice, survival T/C
Experiment: NCI In Vivo Anticancer Drug Screen. Data for tumor model L1210 Leukemia (intraperitoneal) in B6D2F1 (BDF1) mice
Settings: endpoint: mean survival time, higher = longer survival
How it was run: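 Transplanted-tumor mice were given test agent; controls received vehicle only. Survival readings from the two groups were divided (treated over control).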

[1] = dose: 100.0 mg/kg/injection, schedule: Q04DX003 (ip), vehicle: saline with Tween-80
[2] = dose: 200.0 mg/kg/injection, schedule: Q04DX003 (ip), vehicle: saline with Tween-80
[3] = dose: 400.0 mg/kg/injection, schedule: Q04DX003 (ip), vehicle: saline with Tween-80
[4] = dose: 50.0 mg/kg/injection, schedule: Q01DX009 (ip), vehicle: saline
[5] = dose: 100.0 mg/kg/injection, schedule: Q01DX009 (ip), vehicle: saline
[6] = dose: 100.0 mg/kg/injection, schedule: Q01DX009 (ip), vehicle: saline with Tween-80
[7] = dose: 200.0 mg/kg/injection, schedule: Q01DX009 (ip), vehicle: saline with Tween-80
[8] = dose: 400.0 mg/kg/injection, schedule: Q01DX009 (ip), vehicle: saline with Tween-80
[9] = dose: 100.0 mg/kg/injection, schedule: Q04DX002 (ip), vehicle: saline with Tween-80
[10] = dose: 200.0 mg/kg/injection, schedule: Q04DX002 (ip), vehicle: saline with Tween-80
[11] = dose: 400.0 mg/kg/injection, schedule: Q04DX002 (ip), vehicle: saline with Tween-80

Measured: T/C

N#CSC1CSC(SC2=NC(SC#N)CS2)=N1 (configuration not stated)
inactive: dose: 100.0 mg/kg/injection, schedule: Q01DX009 (ip), vehicle: Klucel (hydroxypropylcellulose) (HPC) 94 % of control | dose: 100.0 mg/kg/injection, schedule: Q04DX003 (ip), vehicle: saline 98 % of control | dose: 200.0 mg/kg/injection, schedule: Q01DX009 (ip), vehicle: Klucel (hydroxypropylcellulose) (HPC) 104 % of control | dose: 200.0 mg/kg/injection, schedule: Q04DX003 (ip), vehicle: saline 92 % of control

O=C1c2ccccc2C2C(=O)c3ccccc3C12 (configuration not stated)
inactive: [1] 98 % of control | [2] 96 % of control | [3] 95 % of control

Cc1ccc(S(=O)(=O)OCC(CO)(COS(=O)(=O)c2ccc(C)cc2)[N+](=O)[O-])cc1
inactive: [4] 104 % of control | [5] 94 % of control | dose: 100.0 mg/kg/injection, schedule: Q04DX003 (ip), vehicle: Klucel (hydroxypropylcellulose) (HPC) 97 % of control | dose: 200.0 mg/kg/injection, schedule: Q01DX009 (ip), vehicle: saline 96 % of control | dose: 200.0 mg/kg/injection, schedule: Q04DX003 (ip), vehicle: Klucel (hydroxypropylcellulose) (HPC) 105 % of control

CSc1ncc(Br)c(C(=O)O)n1
inactive: [6] 93 % of control | [7] 93 % of control | [8] 94 % of control

CC(C)CC(=O)/C=C/C=C/c1ccccc1
inactive: [9] 101 % of control | [10] 95 % of control | [11] 111 % of control

S=c1oc2cccc3c2n1CCC3
inactive: [6] 113 % of control | [1] 97 % of control | [7] 101 % of control | [2] 107 % of control | [8] 98 % of control | [3] 97 % of control

O=C1OC(/C=C/c2ccccc2)=NC/1=C\c1ccccc1
inactive: [9] 92 % of control | [10] 95 % of control | [11] 92 % of control

C=C1C(=O)OC2CCCCCCC12 (configuration not stated)
inactive: [4] 95 % of control | [5] 95 % of control

CC(=O)NNC(=O)c1ccncc1
inactive: dose: 100.0 mg/kg/injection, schedule: Q01DX001 (ip), vehicle: water 93 % of control | dose: 100.0 mg/kg/injection, schedule: Q01DX009 (ip), vehicle: water 101 % of control | dose: 200.0 mg/kg/injection, schedule: Q01DX001 (ip), vehicle: water 98 % of control | dose: 200.0 mg/kg/injection, schedule: Q01DX009 (ip), vehicle: water 106 % of control and 110 % of control | dose: 400.0 mg/kg/injection, schedule: Q01DX001 (ip), vehicle: water 102 % of control | dose: 600.0 mg/kg/injection, schedule: Q01DX009 (ip), vehicle: water 122 % of control | dose: 800.0 mg/kg/injection, schedule: Q01DX009 (ip), vehicle: water 97 % of control

CCOC(=O)C[n+]1ccccc1C
inactive: dose: 50.0 mg/kg/injection, schedule: Q04DX002 (ip), vehicle: saline 90 % of control | dose: 100.0 mg/kg/injection, schedule: Q04DX002 (ip), vehicle: saline 97 % of control | dose: 200.0 mg/kg/injection, schedule: Q04DX002 (ip), vehicle: saline 93 % of control

CCOC(=O)c1ccc(SC(Cl)(Cl)Cl)cc1
inactive: dose: 100.0 mg/kg/injection, schedule: Q01DX001 (ip), vehicle: alcohol 98 % of control | dose: 200.0 mg/kg/injection, schedule: Q01DX001 (ip), vehicle: alcohol 107 % of control | dose: 400.0 mg/kg/injection, schedule: Q01DX001 (ip), vehicle: alcohol 120 % of control
